Assay results reported in ChEMBL document CHEMBL5236605, “Design and synthesis of dual cathepsin L and S inhibitors and antimetastatic activity evaluation in pancreatic cancer cells” (Bioorg Med Chem Lett, 2023).
Active and inactive are the calls of the source. No cut-off for these calls is given here.

target: T1, Procathepsin L (Homo sapiens, UniProt P07711); experiment: Inhibition of human cathepsin L; conditions: not given
Target sequence in this assay (P07711 whole entry): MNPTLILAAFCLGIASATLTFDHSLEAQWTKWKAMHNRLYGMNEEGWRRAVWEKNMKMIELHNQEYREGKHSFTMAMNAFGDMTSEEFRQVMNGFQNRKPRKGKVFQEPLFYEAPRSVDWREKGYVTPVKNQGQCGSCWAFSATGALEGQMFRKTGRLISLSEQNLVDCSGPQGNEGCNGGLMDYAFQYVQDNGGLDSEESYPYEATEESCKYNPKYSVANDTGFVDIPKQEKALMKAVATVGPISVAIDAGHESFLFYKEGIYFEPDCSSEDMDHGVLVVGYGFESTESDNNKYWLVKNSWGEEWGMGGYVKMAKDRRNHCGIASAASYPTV

IC50 | SMILES
> 100 µM | COc1ccc(/C=C/C(=O)NC[C@H](Cc2ccccc2)NS(=O)(=O)c2ccc(Br)cc2)cc1OC
6.03 µM | O=C(OC[C@@H](Cc1ccccc1)NS(=O)(=O)c1ccc(Br)cc1)[C@@H](Cc1ccccc1)NS(=O)(=O)c1ccccc1
23.9 µM | COc1cccc(/C=C/C(=O)NC[C@@H](Cc2ccccc2)NS(=O)(=O)c2ccc(Br)cc2)c1
45.9 µM | N#Cc1ccccc1N1CCN(C[C@@H](O)COC[C@H](Cc2ccccc2)NS(=O)(=O)c2ccc(C(F)(F)F)cc2)CC1
5.47 µM | N#Cc1ccccc1N1CCN(C[C@@H](O)COC[C@H](Cc2ccccc2)NS(=O)(=O)c2ccc(Br)cc2)CC1
4.1 µM | N#Cc1ccccc1N1CCN(C[C@@H](O)COC[C@@H](Cc2ccccc2)NS(=O)(=O)c2ccc(Br)cc2)CC1
> 100 µM | COc1ccc(/C=C/C(=O)NC[C@H](Cc2ccccc2)NS(=O)(=O)c2ccc(C(F)(F)F)cc2)cc1OC

The next lines start with the compound.

SMILES | IC50
N#Cc1ccccc1N1CCN(C[C@H](O)COC[C@@H](Cc2ccccc2)NS(=O)(=O)c2ccc(C(F)(F)F)cc2)CC1 | 40.7 µM
N#Cc1ccccc1N1CCN(C[C@H](O)COC[C@@H](Cc2ccccc2)NC(=O)C2CCN(C(=O)OCc3ccccc3)CC2)CC1 | > 100 µM
N#Cc1ccccc1N1CCN(C[C@@H](O)COC[C@@H](Cc2ccccc2)NS(=O)(=O)c2ccc(C(F)(F)F)cc2)CC1 | 10.5 µM
N#Cc1ccccc1N1CCN(C[C@H](O)COC[C@H](Cc2ccccc2)NC(=O)C2CCN(C(=O)OCc3ccccc3)CC2)CC1 | 14.5 µM
N#Cc1ccccc1N1CCN(C[C@@H](O)COC[C@@H](Cc2ccccc2)NC(=O)C2CCN(C(=O)OCc3ccccc3)CC2)CC1 | > 100 µM
N#Cc1ccccc1N1CCN(C[C@@H](O)COC[C@H](Cc2ccccc2)NC(=O)C2CCN(C(=O)OCc3ccccc3)CC2)CC1 | 19.5 µM

target: T2, Cathepsin S (Homo sapiens, UniProt P25774); experiment: Inhibition of human cathepsin S; conditions: not given
Target sequence in this assay (P25774 whole entry): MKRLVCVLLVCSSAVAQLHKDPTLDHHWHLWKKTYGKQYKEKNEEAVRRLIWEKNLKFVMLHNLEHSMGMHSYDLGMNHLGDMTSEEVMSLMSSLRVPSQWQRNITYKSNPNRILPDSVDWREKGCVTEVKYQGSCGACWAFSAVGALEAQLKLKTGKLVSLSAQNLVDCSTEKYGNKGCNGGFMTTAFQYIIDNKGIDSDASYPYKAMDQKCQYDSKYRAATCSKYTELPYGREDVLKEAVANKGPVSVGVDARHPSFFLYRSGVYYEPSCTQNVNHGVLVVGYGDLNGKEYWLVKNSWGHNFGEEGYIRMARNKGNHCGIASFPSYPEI

IC50 | SMILES
> 100 µM | COc1ccc(/C=C/C(=O)NC[C@H](Cc2ccccc2)NS(=O)(=O)c2ccc(Br)cc2)cc1OC
5.02 µM | O=C(OC[C@@H](Cc1ccccc1)NS(=O)(=O)c1ccc(Br)cc1)[C@@H](Cc1ccccc1)NS(=O)(=O)c1ccccc1
41 µM | COc1cccc(/C=C/C(=O)NC[C@@H](Cc2ccccc2)NS(=O)(=O)c2ccc(Br)cc2)c1
29.2 µM | N#Cc1ccccc1N1CCN(C[C@@H](O)COC[C@H](Cc2ccccc2)NS(=O)(=O)c2ccc(C(F)(F)F)cc2)CC1
5.46 µM | N#Cc1ccccc1N1CCN(C[C@@H](O)COC[C@H](Cc2ccccc2)NS(=O)(=O)c2ccc(Br)cc2)CC1
1.79 µM | N#Cc1ccccc1N1CCN(C[C@@H](O)COC[C@@H](Cc2ccccc2)NS(=O)(=O)c2ccc(Br)cc2)CC1
> 100 µM | COc1ccc(/C=C/C(=O)NC[C@H](Cc2ccccc2)NS(=O)(=O)c2ccc(C(F)(F)F)cc2)cc1OC

Second part, the compound before the results:

SMILES | IC50
N#Cc1ccccc1N1CCN(C[C@H](O)COC[C@@H](Cc2ccccc2)NS(=O)(=O)c2ccc(C(F)(F)F)cc2)CC1 | 40.4 µM
N#Cc1ccccc1N1CCN(C[C@H](O)COC[C@@H](Cc2ccccc2)NC(=O)C2CCN(C(=O)OCc3ccccc3)CC2)CC1 | > 100 µM
N#Cc1ccccc1N1CCN(C[C@@H](O)COC[C@@H](Cc2ccccc2)NS(=O)(=O)c2ccc(C(F)(F)F)cc2)CC1 | 22.3 µM
N#Cc1ccccc1N1CCN(C[C@H](O)COC[C@H](Cc2ccccc2)NC(=O)C2CCN(C(=O)OCc3ccccc3)CC2)CC1 | 11.1 µM
N#Cc1ccccc1N1CCN(C[C@@H](O)COC[C@@H](Cc2ccccc2)NC(=O)C2CCN(C(=O)OCc3ccccc3)CC2)CC1 | > 100 µM
N#Cc1ccccc1N1CCN(C[C@@H](O)COC[C@H](Cc2ccccc2)NC(=O)C2CCN(C(=O)OCc3ccccc3)CC2)CC1 | 22.7 µM

target: Cathepsin B (Homo sapiens, UniProt P07858); experiment: Inhibition of human cathepsin B; conditions: not given

IC50 | SMILES
> 100 µM | COc1ccc(/C=C/C(=O)NC[C@H](Cc2ccccc2)NS(=O)(=O)c2ccc(Br)cc2)cc1OC
> 100 µM | O=C(OC[C@@H](Cc1ccccc1)NS(=O)(=O)c1ccc(Br)cc1)[C@@H](Cc1ccccc1)NS(=O)(=O)c1ccccc1
> 100 µM | COc1cccc(/C=C/C(=O)NC[C@@H](Cc2ccccc2)NS(=O)(=O)c2ccc(Br)cc2)c1
> 100 µM | N#Cc1ccccc1N1CCN(C[C@@H](O)COC[C@H](Cc2ccccc2)NS(=O)(=O)c2ccc(C(F)(F)F)cc2)CC1
> 100 µM | N#Cc1ccccc1N1CCN(C[C@@H](O)COC[C@H](Cc2ccccc2)NS(=O)(=O)c2ccc(Br)cc2)CC1
> 100 µM | N#Cc1ccccc1N1CCN(C[C@@H](O)COC[C@@H](Cc2ccccc2)NS(=O)(=O)c2ccc(Br)cc2)CC1
> 100 µM | COc1ccc(/C=C/C(=O)NC[C@H](Cc2ccccc2)NS(=O)(=O)c2ccc(C(F)(F)F)cc2)cc1OC

Continued, compound first:

SMILES | IC50
N#Cc1ccccc1N1CCN(C[C@H](O)COC[C@@H](Cc2ccccc2)NS(=O)(=O)c2ccc(C(F)(F)F)cc2)CC1 | > 100 µM
N#Cc1ccccc1N1CCN(C[C@H](O)COC[C@@H](Cc2ccccc2)NC(=O)C2CCN(C(=O)OCc3ccccc3)CC2)CC1 | > 100 µM
N#Cc1ccccc1N1CCN(C[C@@H](O)COC[C@@H](Cc2ccccc2)NS(=O)(=O)c2ccc(C(F)(F)F)cc2)CC1 | > 100 µM
N#Cc1ccccc1N1CCN(C[C@H](O)COC[C@H](Cc2ccccc2)NC(=O)C2CCN(C(=O)OCc3ccccc3)CC2)CC1 | > 100 µM
N#Cc1ccccc1N1CCN(C[C@@H](O)COC[C@@H](Cc2ccccc2)NC(=O)C2CCN(C(=O)OCc3ccccc3)CC2)CC1 | > 100 µM
N#Cc1ccccc1N1CCN(C[C@@H](O)COC[C@H](Cc2ccccc2)NC(=O)C2CCN(C(=O)OCc3ccccc3)CC2)CC1 | > 100 µM

target: T3, Cathepsin K (Homo sapiens, UniProt P43235); experiment: Inhibition of human cathepsin K; conditions: not given
T3 sequence (P43235 whole entry): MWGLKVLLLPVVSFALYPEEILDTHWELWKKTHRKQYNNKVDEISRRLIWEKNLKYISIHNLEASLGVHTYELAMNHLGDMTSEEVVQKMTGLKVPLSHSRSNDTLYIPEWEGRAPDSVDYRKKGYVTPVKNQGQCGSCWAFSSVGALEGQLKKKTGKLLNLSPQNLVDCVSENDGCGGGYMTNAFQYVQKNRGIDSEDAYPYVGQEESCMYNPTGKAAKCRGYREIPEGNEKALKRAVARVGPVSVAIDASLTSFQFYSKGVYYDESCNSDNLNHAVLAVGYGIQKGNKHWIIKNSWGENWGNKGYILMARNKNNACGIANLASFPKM

IC50 | SMILES
> 100 µM | COc1ccc(/C=C/C(=O)NC[C@H](Cc2ccccc2)NS(=O)(=O)c2ccc(Br)cc2)cc1OC
> 100 µM | O=C(OC[C@@H](Cc1ccccc1)NS(=O)(=O)c1ccc(Br)cc1)[C@@H](Cc1ccccc1)NS(=O)(=O)c1ccccc1
> 100 µM | COc1cccc(/C=C/C(=O)NC[C@@H](Cc2ccccc2)NS(=O)(=O)c2ccc(Br)cc2)c1
> 100 µM | N#Cc1ccccc1N1CCN(C[C@@H](O)COC[C@H](Cc2ccccc2)NS(=O)(=O)c2ccc(C(F)(F)F)cc2)CC1
> 100 µM | N#Cc1ccccc1N1CCN(C[C@@H](O)COC[C@H](Cc2ccccc2)NS(=O)(=O)c2ccc(Br)cc2)CC1
> 100 µM | N#Cc1ccccc1N1CCN(C[C@@H](O)COC[C@@H](Cc2ccccc2)NS(=O)(=O)c2ccc(Br)cc2)CC1
> 100 µM | COc1ccc(/C=C/C(=O)NC[C@H](Cc2ccccc2)NS(=O)(=O)c2ccc(C(F)(F)F)cc2)cc1OC

Continued, compound first:

SMILES | IC50
N#Cc1ccccc1N1CCN(C[C@H](O)COC[C@@H](Cc2ccccc2)NS(=O)(=O)c2ccc(C(F)(F)F)cc2)CC1 | > 100 µM
N#Cc1ccccc1N1CCN(C[C@H](O)COC[C@@H](Cc2ccccc2)NC(=O)C2CCN(C(=O)OCc3ccccc3)CC2)CC1 | > 100 µM
N#Cc1ccccc1N1CCN(C[C@@H](O)COC[C@@H](Cc2ccccc2)NS(=O)(=O)c2ccc(C(F)(F)F)cc2)CC1 | > 100 µM
N#Cc1ccccc1N1CCN(C[C@H](O)COC[C@H](Cc2ccccc2)NC(=O)C2CCN(C(=O)OCc3ccccc3)CC2)CC1 | > 100 µM
N#Cc1ccccc1N1CCN(C[C@@H](O)COC[C@@H](Cc2ccccc2)NC(=O)C2CCN(C(=O)OCc3ccccc3)CC2)CC1 | > 100 µM
N#Cc1ccccc1N1CCN(C[C@@H](O)COC[C@H](Cc2ccccc2)NC(=O)C2CCN(C(=O)OCc3ccccc3)CC2)CC1 | > 100 µM

system: BXPC-3; experiment: Antiproliferative activity against human BxPC-3 cells assessed as reduction of cell viability at <25 uM by MTT assay; format: functional; conditions: not given

SMILES | Activity
N#Cc1ccccc1N1CCN(C[C@@H](O)COC[C@@H](Cc2ccccc2)NS(=O)(=O)c2ccc(Br)cc2)CC1 | 100%

system: PANC-1; experiment: Antiproliferative activity against human PANC-1 cells assessed as reduction of cell viability at <25 uM by MTT assay; format: functional; conditions: not given

SMILES | Activity
N#Cc1ccccc1N1CCN(C[C@@H](O)COC[C@@H](Cc2ccccc2)NS(=O)(=O)c2ccc(Br)cc2)CC1 | 100%

target: T1, Procathepsin L; experiment: Inhibition of cathepsin L activity in human BXPC-3 cells at 6.25 to 25 uM incubated for 48 hrs by fluorescence-based assay; format: cell-based; conditions: dose 6.25-25 µM
Target sequence in this assay (P07711 114-333 limits assumed): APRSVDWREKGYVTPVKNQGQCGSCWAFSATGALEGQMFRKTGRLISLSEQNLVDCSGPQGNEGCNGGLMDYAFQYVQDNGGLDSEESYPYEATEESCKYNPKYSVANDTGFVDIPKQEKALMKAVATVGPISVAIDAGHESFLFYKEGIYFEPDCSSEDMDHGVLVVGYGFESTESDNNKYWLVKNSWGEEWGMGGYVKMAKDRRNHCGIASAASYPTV

SMILES | inhibition
N#Cc1ccccc1N1CCN(C[C@@H](O)COC[C@@H](Cc2ccccc2)NS(=O)(=O)c2ccc(Br)cc2)CC1 | Dose-Dependent Effect

target: T1, Procathepsin L; experiment: Inhibition of cathepsin L activity in human PANC-1 cells at 6.25 to 25 uM incubated for 48 hrs by fluorescence-based assay; format: cell-based; conditions: dose 6.25-25 µM
Target sequence in this assay (P07711 114-333 limits assumed): as above

SMILES | inhibition
N#Cc1ccccc1N1CCN(C[C@@H](O)COC[C@@H](Cc2ccccc2)NS(=O)(=O)c2ccc(Br)cc2)CC1 | Dose-Dependent Effect

target: T2, Cathepsin S; experiment: Inhibition of cathepsin S activity in human BXPC-3 cells at 6.25 to 25 uM incubated for 48 hrs by fluorescence-based assay; format: cell-based; conditions: dose 6.25-25 µM
Target sequence in this assay (P25774 115-331 limits assumed): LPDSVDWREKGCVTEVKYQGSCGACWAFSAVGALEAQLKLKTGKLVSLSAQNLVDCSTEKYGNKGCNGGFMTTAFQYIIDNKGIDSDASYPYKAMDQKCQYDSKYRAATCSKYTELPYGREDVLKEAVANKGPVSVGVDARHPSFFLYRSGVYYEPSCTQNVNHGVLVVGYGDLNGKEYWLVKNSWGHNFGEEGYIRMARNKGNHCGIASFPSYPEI

SMILES | inhibition
N#Cc1ccccc1N1CCN(C[C@@H](O)COC[C@@H](Cc2ccccc2)NS(=O)(=O)c2ccc(Br)cc2)CC1 | Dose-Dependent Effect

target: T2, Cathepsin S; experiment: Inhibition of cathepsin S activity in human PANC-1 cells at 6.25 to 25 uM incubated for 48 hrs by fluorescence-based assay; format: cell-based; conditions: dose 6.25-25 µM
Target sequence in this assay (P25774 115-331 limits assumed): as above

SMILES | inhibition
N#Cc1ccccc1N1CCN(C[C@@H](O)COC[C@@H](Cc2ccccc2)NS(=O)(=O)c2ccc(Br)cc2)CC1 | Dose-Dependent Effect

system: BXPC-3; experiment: Antiproliferative activity against human BxPC-3 cells assessed as effect on cathepsin L mRNA expression level at 6.25 to 25 uM incubated for 48 hrs by RT-PCR analysis; format: functional, cell-based; conditions: dose 6.25-25 µM

SMILES | Activity
N#Cc1ccccc1N1CCN(C[C@@H](O)COC[C@@H](Cc2ccccc2)NS(=O)(=O)c2ccc(Br)cc2)CC1 | inactive

system: PANC-1; experiment: Antiproliferative activity against human PANC-1 cells assessed as effect on cathepsin L mRNA expression level at 6.25 to 25 uM incubated for 48 hrs by RT-PCR analysis; format: functional, cell-based; conditions: dose 6.25-25 µM

SMILES | Activity
N#Cc1ccccc1N1CCN(C[C@@H](O)COC[C@@H](Cc2ccccc2)NS(=O)(=O)c2ccc(Br)cc2)CC1 | inactive

system: BXPC-3; experiment: Antimetastatic activity in human BXPC-3 cells assessed as reduction in cell migration at 6.25 to 25 uM incubated for 48 hrs by wound healing assay; format: functional, cell-based; conditions: dose 6.25-25 µM

SMILES | Activity
N#Cc1ccccc1N1CCN(C[C@@H](O)COC[C@@H](Cc2ccccc2)NS(=O)(=O)c2ccc(Br)cc2)CC1 | Dose-Dependent Effect

system: PANC-1; experiment: Antimetastatic activity in human PANC-1 cells assessed as reduction in cell migration at 6.25 to 25 uM incubated for 48 hrs by wound healing assay; format: functional, cell-based; conditions: dose 6.25-25 µM

SMILES | Activity
N#Cc1ccccc1N1CCN(C[C@@H](O)COC[C@@H](Cc2ccccc2)NS(=O)(=O)c2ccc(Br)cc2)CC1 | Dose-Dependent Effect

system: BXPC-3; experiment: Anti-invasive activity in human BXPC-3 cells assessed as reduction in cell invasion at 6.25 to 25 uM incubated for 24 hrs by crystal violet staining based transwell migration assay; format: functional; conditions: dose 6.25-25 µM

SMILES | Activity
N#Cc1ccccc1N1CCN(C[C@@H](O)COC[C@@H](Cc2ccccc2)NS(=O)(=O)c2ccc(Br)cc2)CC1 | Dose-Dependent Effect

system: PANC-1; experiment: Anti-invasive activity in human PANC-1 cells assessed as reduction in cell invasion at 6.25 to 25 uM incubated for 24 hrs by crystal violet staining based transwell migration assay; format: functional; conditions: dose 6.25-25 µM

SMILES | Activity
N#Cc1ccccc1N1CCN(C[C@@H](O)COC[C@@H](Cc2ccccc2)NS(=O)(=O)c2ccc(Br)cc2)CC1 | Dose-Dependent Effect
